Key:
[1] = target: T1, Human PGP (MDR1) (Homo sapiens, UniProt P08183); experiment: Transport by P-GP (MDR-1); type: cell-based; conditions: judged from IC50 in KB, KB-8-5, KB-V-1 cells
T1 construct: endogenous in cells; parental KB is P-GP negative
Excerpt: (§1) Human PGP (MDR1) is an ATP-dependent efflux pump which is capable of transporting many drugs across cell membranes. High level expression of this protein has been linked to multiple drug resistance of tumors. […] The protein component of the chromoprotein probably protects the chromophore from drug efflux mediated by MDR1, and may be responsible for the beneficial antitumor effects in colon cell lines which often express MDR1.

[2] = tested on: Histone H1; experiment: Digestion of histone H1, SDS-PAGE; type: biochemical; conditions: 50 mM Tris-Cl, pH 7.5 overnight at 37° C.
Experimental: Histone H1 was incubated with various concentrations of the chromoprotein in 50 mM Tris-Cl, pH 7.5 overnight at 37° C. (FIG. 20) Digestions of histone were assessed by SDS-polyacrylamide gel electrophoresis (SDS-PAGE), followed by staining of the gel with GelCode Blue (Pierce Biotechnology, Inc, Rockford, Ill.).

[3] = tested on: KB; experiment: IC50 against P-GP expressing cells: KB; type: cell-based; conditions: P-GP level −, mean of two independent experiments
Excerpt: as §1

[4] = tested on: KB-8-5; experiment: IC50 against P-GP expressing cells: KB-8-5; type: cell-based; conditions: KB-8-5, P-GP level +; mean of two independent experiments
Excerpt: as §1

[5] = tested on: KB-V-1; experiment: IC50 against P-GP expressing cells: KB-V-1; type: cell-based; conditions: KB-V-1, P-GP level +++; mean of two independent experiments
Excerpt: as §1

[6] = tested on: histone H1 in HeLa cells; experiment: Digestion of histone H1 in HeLa cells, immunoblot; type: cell-based; conditions: overnight at 37° C., anti-histone H1 immunoblot
Experimental: To study whether the digestion of histones by the chromoprotein occurs in intact cells, HeLa cells were incubated with compounds overnight at 37° C. Cell lysates were analysed by SDS-PAGE and protein immunoblotting using anti-histone H1 antibodies (Santa Cruz Biotechnologies). […] This activity can contribute to antitumor effects by digesting histones in chromatin, making the DNA more accessible for cleavage. This appears to be a unique activity of the chromoprotein enediynes.

[7] = tested on: HCT116 cells; experiment: Uptake of FITC-tagged protein, fluorescent microscopy / flow cytometry; type: cell-based, human
Excerpt: To determine the mechanism by which the chromoprotein enters cells and exerts its biological activity, the chromoprotein was labeled with a fluorescent tag (FITC) using EZ-Label fluorescent labeling kit (Pierce Biotechnology), according to the manufacturer's recommendation. […] Uptake of labeled material by HCT116 colon carcinoma cells was studied by fluorescent microscopy.
To determine whether an intact complex of chromophore and apoprotein is required for cellular and nuclear entry, the chromoprotein and apoprotein were labeled with FITC. Uptake of labeled material was studied by fluorescent microscopy.
To determine whether the entry of chromoprotein into cells is mediated by a saturable (e.g. cell surface receptor-dependent) process, HCT116 cells were incubated with FITC-labeled chromoprotein (FIG. 28, right panel) or apoprotein (FIG. 28, left panel) in the absence or presence of 10-fold excess of unlabeled reagent (unlabelled chromoprotein or apoprotein, respectively). Cells were analysed by fluorescent microscopy (left) or flow cytometry (right). […] Numbers in the histograms are mean channel numbers (FITC fluorescence).
Other means by which a protein complex can enter cells is pinocytosis, where caveolae in the surface of the cell pinch off to form pinosomes that are free within the cytoplasm of the cell. Since pinocytosis is an energy-dependent process that requires a functional tubulin cytoskeletal network, we examined the effect of sodium azide, an energy uncoupling agent and nocodazole, an agent which disrupts the tubulin cytoskeleton on cellular uptake. HCT116 cells were treated with FITC-labeled apoprotein in the absence or presence of sodium azide or nocodazole.

[8] = tested on: human tumor cell line panel; experiment: In vitro anti-tumor activity, human tumor cell line panel; type: cell-based; conditions: apoprotein alone

T1 sequence (P08183 whole entry): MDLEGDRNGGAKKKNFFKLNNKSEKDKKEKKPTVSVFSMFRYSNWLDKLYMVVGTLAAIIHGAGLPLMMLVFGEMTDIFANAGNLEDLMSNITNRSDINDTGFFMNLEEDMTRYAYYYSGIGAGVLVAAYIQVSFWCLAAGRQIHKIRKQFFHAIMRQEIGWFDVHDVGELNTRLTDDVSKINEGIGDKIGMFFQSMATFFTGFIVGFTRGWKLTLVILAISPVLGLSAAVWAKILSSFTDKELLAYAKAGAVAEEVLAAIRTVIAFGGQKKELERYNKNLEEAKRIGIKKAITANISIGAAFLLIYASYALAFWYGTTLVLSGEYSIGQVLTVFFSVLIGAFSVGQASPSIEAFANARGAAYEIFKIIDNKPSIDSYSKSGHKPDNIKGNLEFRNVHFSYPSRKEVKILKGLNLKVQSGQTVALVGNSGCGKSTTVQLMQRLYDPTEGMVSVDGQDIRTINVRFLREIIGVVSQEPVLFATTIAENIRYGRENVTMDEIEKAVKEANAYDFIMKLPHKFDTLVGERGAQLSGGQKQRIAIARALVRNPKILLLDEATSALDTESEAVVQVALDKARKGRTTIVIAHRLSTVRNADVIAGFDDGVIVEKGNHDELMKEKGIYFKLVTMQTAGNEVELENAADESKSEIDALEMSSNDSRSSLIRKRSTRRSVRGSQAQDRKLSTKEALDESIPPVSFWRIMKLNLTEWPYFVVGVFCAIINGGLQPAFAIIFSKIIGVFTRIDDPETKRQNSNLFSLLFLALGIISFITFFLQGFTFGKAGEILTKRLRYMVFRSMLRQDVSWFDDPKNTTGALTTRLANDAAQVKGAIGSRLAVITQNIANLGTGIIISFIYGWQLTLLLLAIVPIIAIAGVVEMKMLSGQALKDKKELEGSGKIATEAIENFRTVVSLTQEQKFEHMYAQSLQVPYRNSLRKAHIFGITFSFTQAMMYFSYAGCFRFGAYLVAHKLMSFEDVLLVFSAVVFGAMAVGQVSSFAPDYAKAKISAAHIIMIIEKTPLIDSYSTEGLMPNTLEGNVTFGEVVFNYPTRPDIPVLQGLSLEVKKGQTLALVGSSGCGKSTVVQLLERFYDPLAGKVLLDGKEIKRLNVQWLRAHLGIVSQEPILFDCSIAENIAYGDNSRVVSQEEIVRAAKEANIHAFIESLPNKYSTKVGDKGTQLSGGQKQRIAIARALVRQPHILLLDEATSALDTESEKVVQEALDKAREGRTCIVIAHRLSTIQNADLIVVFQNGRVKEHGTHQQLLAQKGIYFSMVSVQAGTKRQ

calicheamicin [reference compound] was tested, and the “MDR1 substrate” value [1] was “good substrate for MDR1”, the “digestion of histone H1” value [2] was “did not cleave histone H1” and the IC50 [3] was 3 ng/mL. For the same molecule, the IC50 [4] was 21 ng/mL, the IC50 [5] was >1000 ng/mL and the “histone H1 in cells after incubation” value [6] was “No effect”.

In the case of `COC(=O)Nc1nc2ccc(C(=O)c3cccs3)cc2[nH]1` [nocodazole, reference compound], the “effect on uptake of FITC-labeled apoprotein” value ([7]; HCT116 cells) is reported as “inhibited uptake of label”.

With bleomycin the “histone H1 in cells after incubation” value [6] was “No effect”.

B1: apoprotein: protein component of the 21G792 chromoprotein without chromophore, SEQ ID NO:150, 12.92409 kDa by MALDI-MS (protein)
chain: DTVTVNYDCVGYPSDIAVTIDAPATAGVGDTATFEVSSVVTTGAPQDLPAGEVVTDMAIVVGGAQSGTITASGLTNEATPAGQPVNMVGGEAQITFTSAGSVTFTPSTTTQVDNGAQCTVVGEAPVGATTVVS
modifications: Actinomadura sp. 21G792
In the case of B1, the “digestion of histone H1” value [2] is reported as “no activity”, the “in vitro anti-tumor activity” value [8] is reported as “inactive” and the “uptake, apoprotein compared with chromoprotein” value ([7]; FITC-labeled) is reported as “similar”. For the same molecule, the “competition of uptake by 10-fold excess of unlabeled reagent” value ([7]; FITC-labeled, microscopy or flow cytometry) was “No competition of label”.

Source: patent US20080274959A1, “Actinomadura Chromoprotein, Apoprotein and Gene Cluster” (Wyeth, priority 2004, published 2008)
